According to the NIST ThermoML archive (doi:10.1021/acs.jced.7b00297):
Numbers after ± are expanded uncertainties.

Experiment: mn = molality of the nth substance listed, in mol/kg
Conditions: 84.5 kPa, Liquid; for speed of sound: Single path-length method; for mass density: Vibrating tube method

Compound: CCCCCCn1cc[n+](C)c1.[Cl-] [1-hexyl-3-methylimidazolium chloride] + O
- speed of sound (288.15 K, m1 = 0.0096): 1468.2 ± 1 m/s
- speed of sound (288.15 K, m1 = 0.0296): 1471.7 ± 1 m/s
- speed of sound (288.15 K, m1 = 0.0585): 1476.8 ± 1 m/s
- speed of sound (288.15 K, m1 = 0.0734): 1479.4 ± 1 m/s
- speed of sound (288.15 K, m1 = 0.0999): 1483.9 ± 1 m/s
- speed of sound (288.15 K, m1 = 0.1212): 1487.4 ± 1 m/s
- speed of sound (288.15 K, m1 = 0.1542): 1493 ± 1 m/s
- speed of sound (288.15 K, m1 = 0.2244): 1504 ± 1 m/s
- speed of sound (288.15 K, m1 = 0.2863): 1513.8 ± 1.1 m/s
- speed of sound (288.15 K, m1 = 0.469): 1540.2 ± 1.1 m/s
- speed of sound (288.15 K, m1 = 0.8901): 1591.4 ± 1.1 m/s
- mass density (288.15 K, m1 = 0.0096): 999.203 ± 4 kg/m3
- mass density (288.15 K, m1 = 0.0296): 999.412 ± 4 kg/m3
- mass density (288.15 K, m1 = 0.0585): 999.713 ± 4 kg/m3
- mass density (288.15 K, m1 = 0.0734): 999.867 ± 4 kg/m3
- mass density (288.15 K, m1 = 0.0999): 1000.15 ± 4 kg/m3
- mass density (288.15 K, m1 = 0.1212): 1000.37 ± 4 kg/m3
- mass density (288.15 K, m1 = 0.1542): 1000.73 ± 4 kg/m3
- mass density (288.15 K, m1 = 0.2244): 1001.47 ± 4 kg/m3
- mass density (288.15 K, m1 = 0.2863): 1002.12 ± 4 kg/m3
- mass density (288.15 K, m1 = 0.469): 1004.08 ± 4 kg/m3
- mass density (288.15 K, m1 = 0.8901): 1008.38 ± 4 kg/m3
- speed of sound (298.15 K, m1 = 0.0096): 1498.2 ± 1 m/s
- speed of sound (298.15 K, m1 = 0.0296): 1501.3 ± 1 m/s
- speed of sound (298.15 K, m1 = 0.0585): 1505.7 ± 1 m/s
- speed of sound (298.15 K, m1 = 0.0734): 1507.9 ± 1 m/s
- speed of sound (298.15 K, m1 = 0.0999): 1511.7 ± 1 m/s
- speed of sound (298.15 K, m1 = 0.1212): 1514.8 ± 1 m/s
- speed of sound (298.15 K, m1 = 0.1542): 1519.5 ± 1 m/s
- speed of sound (298.15 K, m1 = 0.2244): 1528.9 ± 1 m/s
- speed of sound (298.15 K, m1 = 0.2863): 1537.3 ± 1.1 m/s
- speed of sound (298.15 K, m1 = 0.469): 1559.7 ± 1.1 m/s
- speed of sound (298.15 K, m1 = 0.8901): 1602.4 ± 1.1 m/s
- mass density (298.15 K, m1 = 0.0096): 997.128 ± 4 kg/m3
- mass density (298.15 K, m1 = 0.0296): 997.304 ± 4 kg/m3
- mass density (298.15 K, m1 = 0.0585): 997.562 ± 4 kg/m3
- mass density (298.15 K, m1 = 0.0734): 997.692 ± 4 kg/m3
- mass density (298.15 K, m1 = 0.0999): 997.932 ± 4 kg/m3
- mass density (298.15 K, m1 = 0.1212): 998.125 ± 4 kg/m3
- mass density (298.15 K, m1 = 0.1542): 998.421 ± 4 kg/m3
- mass density (298.15 K, m1 = 0.2244): 999.058 ± 4 kg/m3
- mass density (298.15 K, m1 = 0.2863): 999.62 ± 4 kg/m3
- mass density (298.15 K, m1 = 0.469): 1001.27 ± 4 kg/m3
- mass density (298.15 K, m1 = 0.8901): 1004.89 ± 4 kg/m3
- speed of sound (308.15 K, m1 = 0.0096): 1521.1 ± 1 m/s
- speed of sound (308.15 K, m1 = 0.0296): 1523.7 ± 1 m/s
- speed of sound (308.15 K, m1 = 0.0585): 1527.4 ± 1 m/s
- speed of sound (308.15 K, m1 = 0.0734): 1529.3 ± 1 m/s
- speed of sound (308.15 K, m1 = 0.0999): 1532.6 ± 1 m/s
- speed of sound (308.15 K, m1 = 0.1212): 1535.2 ± 1 m/s
- speed of sound (308.15 K, m1 = 0.1542): 1539.2 ± 1 m/s
- speed of sound (308.15 K, m1 = 0.2244): 1547.3 ± 1 m/s
- speed of sound (308.15 K, m1 = 0.2863): 1554.3 ± 1 m/s
- speed of sound (308.15 K, m1 = 0.469): 1573.2 ± 1.1 m/s
- speed of sound (308.15 K, m1 = 0.8901): 1608.7 ± 1.1 m/s
- mass density (308.15 K, m1 = 0.0096): 994.101 ± 4 kg/m3
- mass density (308.15 K, m1 = 0.0296): 994.252 ± 4 kg/m3
- mass density (308.15 K, m1 = 0.0585): 994.471 ± 4 kg/m3
- mass density (308.15 K, m1 = 0.0734): 994.583 ± 4 kg/m3
- mass density (308.15 K, m1 = 0.0999): 994.787 ± 4 kg/m3
- mass density (308.15 K, m1 = 0.1212): 994.95 ± 4 kg/m3
- mass density (308.15 K, m1 = 0.1542): 995.204 ± 4 kg/m3
- mass density (308.15 K, m1 = 0.2244): 995.748 ± 4 kg/m3
- mass density (308.15 K, m1 = 0.2863): 996.227 ± 4 kg/m3
- mass density (308.15 K, m1 = 0.469): 997.628 ± 4 kg/m3
- mass density (308.15 K, m1 = 0.8901): 1000.7 ± 4 kg/m3
- speed of sound (318.15 K, m1 = 0.0096): 1537.6 ± 1 m/s
- speed of sound (318.15 K, m1 = 0.0296): 1539.8 ± 1 m/s
- speed of sound (318.15 K, m1 = 0.0585): 1543 ± 1 m/s
- speed of sound (318.15 K, m1 = 0.0734): 1544.6 ± 1 m/s
- speed of sound (318.15 K, m1 = 0.0999): 1547.3 ± 1 m/s
- speed of sound (318.15 K, m1 = 0.1212): 1549.6 ± 1 m/s
- speed of sound (318.15 K, m1 = 0.1542): 1553 ± 1 m/s
- speed of sound (318.15 K, m1 = 0.2244): 1559.8 ± 1 m/s
- speed of sound (318.15 K, m1 = 0.2863): 1565.8 ± 1 m/s
- speed of sound (318.15 K, m1 = 0.469): 1581.6 ± 1.1 m/s
- speed of sound (318.15 K, m1 = 0.8901): 1610.9 ± 1.1 m/s
- mass density (318.15 K, m1 = 0.0096): 990.268 ± 4 kg/m3
- mass density (318.15 K, m1 = 0.0296): 990.4 ± 4 kg/m3
- mass density (318.15 K, m1 = 0.0585): 990.58 ± 4 kg/m3
- mass density (318.15 K, m1 = 0.0734): 990.681 ± 4 kg/m3
- mass density (318.15 K, m1 = 0.0999): 990.859 ± 4 kg/m3
- mass density (318.15 K, m1 = 0.1212): 990.996 ± 4 kg/m3
- mass density (318.15 K, m1 = 0.1542): 991.215 ± 4 kg/m3
- mass density (318.15 K, m1 = 0.2244): 991.681 ± 4 kg/m3
- mass density (318.15 K, m1 = 0.2863): 992.089 ± 4 kg/m3
- mass density (318.15 K, m1 = 0.469): 993.281 ± 4 kg/m3
- mass density (318.15 K, m1 = 0.8901): 995.899 ± 4 kg/m3
